Source: BindingDB's records for doi:10.1016/j.ejmech.2018.07.023 (University of Copenhagen, 2018)
pIC50: −log10 of the molar value. *1 amine or outer side, *2 acyl side, *3 side chain or, on linkers, in order; H or OH if unused. Where a SMILES comes first, the peptide text is derived from it. Bridges are numbered along the chain shown (N, C = ends). [ ]: non-standard residue; d: D form. Leu(3R-O(AcLeu(3R-OH))) = CC(=O)N[C@H](C(=O)O[C@H](C(C)C)[C@H](N)C(=O)O)[C@H](O)C(C)C; X1 = CC(C)[C@@H](O[*:3])[C@H](N[*:1])C(=O)[*:2]; NMeT = CN[C@H](C(=O)O)[C@@H](C)O; dPhLac = O=C(O)[C@H](O)Cc1ccccc1; NMeA = CN[C@@H](C)C(=O)O; NMeDha = C=C(NC)C(=O)O

assay: Inhibition of recombinant rat Gi coupled mGlu2 receptor expressed in CHO cells assessed as suppression of L-glutamate-induced decrease in cAMP level pretreated for 1 hr followed by L-glutamate/forskolin addition and measured after 30 mins by FRET assay

SMILES | pIC50
C=C1C(=O)N[C@@H](C)C(=O)N(C)[C@@H](C)C(=O)N[C@@H]([C@H](OC(=O)[C@@H](NC(C)=O)[C@H](O)C(C)C)C(C)C)C(=O)N(C)[C@@H]([C@@H](C)OC)C(=O)O[C@H](C)[C@H](NC(C)=O)C(=O)O[C@H](Cc2ccccc2)C(=O)N1C | < 4.00
CO[C@H](C)[C@H]1C(=O)O[C@H](C)[C@H](NC(C)=O)C(=O)O[C@H](CC(C)C)C(=O)N(C)[C@H](CO)C(=O)N[C@@H](C)C(=O)N(C)[C@@H](C)C(=O)N[C@@H]([C@H](OC(=O)[C@@H](NC(C)=O)[C@H](O)C(C)C)C(C)C)C(=O)N1C | < 4.00
C=C1C(=O)N[C@@H](C)C(=O)N(C)[C@@H](C)C(=O)N[C@@H]([C@H](OC(=O)[C@@H](NC(C)=O)[C@H](O)C(C)C)C(C)C)C(=O)N(C)[C@@H]([C@@H](C)OC)C(=O)O[C@@H](C)[C@H](NC(C)=O)C(=O)O[C@H](Cc2ccccc2)C(=O)N1C | < 4.30

More lines, now with the values ahead:

pIC50 | SMILES
< 4.00 | C=C1C(=O)N[C@@H](C)C(=O)N(C)[C@@H](C)C(=O)N[C@@H]([C@H](OC(=O)[C@@H](NC(=O)c2ccccc2)[C@H](O)C(C)C)C(C)C)C(=O)N(C)[C@@H]([C@@H](C)OC)C(=O)O[C@H](C)[C@H](NC(C)=O)C(=O)O[C@H](Cc2ccccc2)C(=O)N1C
< 4.30 | C=C1C(=O)N[C@@H](C)C(=O)N(C)[C@@H](C)C(=O)N[C@@H]([C@H](OC(=O)[C@@H](NC(=O)CCCCC)[C@H](O)C(C)C)C(C)C)C(=O)N(C)[C@@H]([C@@H](C)OC)C(=O)O[C@H](C)[C@H](NC(C)=O)C(=O)O[C@H](Cc2ccccc2)C(=O)N1C
< 4.30 | C=C1C(=O)N[C@@H](C)C(=O)N(C)[C@@H](C)C(=O)N[C@@H]([C@H](OC(=O)[C@@H](NC(C)=O)[C@H](O)C(C)C)C(C)C)C(=O)N(C)[C@@H]([C@@H](C)OC)C(=O)O[C@H](C(C)C)[C@H](NC(C)=O)C(=O)O[C@H](Cc2ccccc2)C(=O)N1C (Ac-[X1][dPhLac][NMeDha]A[NMeA][Leu(3R-O(AcLeu(3R-OH)))][NMeT](Me); ester 1-C)
< 4.00 | C=C1C(=O)N[C@@H](C)C(=O)N(C)[C@@H](C)C(=O)N[C@@H]([C@H](OC(=O)[C@@H](NC(C)=O)[C@H](O)C(C)C)C(C)C)C(=O)N(C)[C@@H]([C@@H](C)OC)C(=O)O[C@H](C)[C@H](NC(C)=O)C(=O)O[C@H](CC(C)C)C(=O)N1C
< 4.30 | C=C1C(=O)N[C@@H](C)C(=O)N(C)[C@@H](C)C(=O)N[C@@H]([C@H](OC(=O)[C@@H](NC(C)=O)[C@H](O)C(C)C)C(C)C)C(=O)N(C)[C@@H]([C@@H](C)OC)C(=O)OC[C@H](NC(C)=O)C(=O)O[C@H](Cc2ccccc2)C(=O)N1C
